Assay results published in ChEMBL document CHEMBL6153134, “Anti-inflammatory and Hepatoprotective Iridoid Glycosides from the Roots of Gomphandra mollis” (J Nat Prod, 2025).

Key:
Assay type in all cases: functional
[1] = tested on: HepG2; assay: Hepatoprotective activity against APAP-induced cytotoxicity in human HepG2 cells assessed as cell viability at 40 uM pretreated for 8 hrs followed by APAP addition for 36 hrs by MTT assay (reference value: 68.1%); conditions: time 44 hrs, read-out: Activity
[2] = tested on: HepG2; assay: Hepatoprotective activity against APAP-induced cytotoxicity in human HepG2 cells assessed as cell viability at 40 to 80 uM pretreated for 8 hrs followed by APAP addition for 36 hrs by MTT assay (reference value: 68.1%); conditions: dose 40-80 µM, time 44 hrs
[3] = tested on: HepG2; assay: Hepatoprotective activity against APAP-induced cytotoxicity in human HepG2 cells assessed as cell viability at 50 ug/mL pretreated for 8 hrs followed by APAP addition for 36 hrs by MTT assay (reference value: 68.1%); conditions: time 44 hrs, read-out: Activity

SMILES | viability at 40 µM [1] | Activity [2] | other results
C=CC1C(CC(OC)OC)C(C(=O)O[C@H]2CC3C(C(=O)OC)=CO[C@@H](O[C@@H]4O[C@H](CO)[C@@H](O)[C@H](O)[C@H]4O)C3[C@H]2C)=CO[C@H]1O[C@@H]1O[C@H](CO)[C@@H](O)[C@H](O)[C@H]1O (stereo partly specified) | 75.6% |  | 
C=C[C@H]1[C@H](O[C@@H]2O[C@H](CO)[C@@H](O)[C@H](O)[C@H]2O)OC=C(C(=O)O[C@H]2C[C@@H]3C(C(=O)OC)=CO[C@@H](O[C@@H]4O[C@H](CO)[C@@H](O)[C@H](O)[C@H]4O)[C@@H]3[C@H]2C)[C@H]1C[C@@H]1O[C@@H]2[C@@H](O)[C@@H](OC[C@H]3O[C@@](CO)(O[C@H]4O[C@H](CO)[C@@H](O)[C@H](O)[C@H]4O)[C@@H](O)[C@@H]3O)O[C@H](CO)[C@@H]2O1 |  | 75.6% | 
C=C[C@H]1[C@H](O[C@@H]2O[C@H](CO)[C@@H](O)[C@H](O)[C@H]2O)OC=C(C(=O)O[C@H]2C[C@@H]3CCOC(=O)[C@@H]3[C@H]2C)[C@H]1C[C@@H](O)O[C@@H](O)C[C@@H]1C(C(=O)O[C@H]2C[C@@H]3CCOC(=O)[C@@H]3[C@H]2C)=CO[C@@H](O[C@@H]2O[C@H](CO)[C@@H](O)[C@H](O)[C@H]2O)[C@@H]1C=C | 75.6% |  | 
C=C[C@H]1[C@H](O[C@@H]2O[C@H](CO)[C@@H](O)[C@H](O)[C@H]2O)OC=C(C(=O)O[C@H]2C[C@@H]3C(C(=O)OC)=CO[C@@H](O[C@@H]4O[C@H](CO)[C@@H](O)[C@H](O)[C@H]4O)[C@@H]3[C@H]2C)[C@H]1CC=O |  | 75.6% | 
COc1cc([C@H]2Oc3cc([C@H]4Oc5cc(O)cc(O)c5C(=O)[C@@H]4O)ccc3O[C@@H]2CO)ccc1O [SILYBIN A] |  |  | viability at 50 µg/mL [3]: 90.9%
C=C[C@H]1[C@H](O[C@@H]2O[C@H](CO)[C@@H](O)[C@H](O)[C@H]2O)OC=C2C(=O)OCC[C@H]21 [SWEROSIDE] |  | 75.6% | 
